This note sets out measurements from ChEMBL document CHEMBL5500384, “New synergistic benzoquinone scaffolds as inhibitors of mycobacterial cytochrome bc1 complex to treat multi-drug resistant tuberculosis” (Eur J Med Chem, 2024).

Data set [1] concerns Mycobacterium tuberculosis. Kind of data set: Antitubercular activity against Mycobacterium tuberculosis H37Rv assessed as effect on nucleoid morphology at 12.5 ug/ml by fluorescence microscopy analysis. The format is functional. As to conditions: dose 12.5 µg/ml.
Data set [2] in a line: Acute toxicity in Albino mouse assessed as mortality at 2000 mg/kg, po after 2 to 4 hrs. The format is organism-based. As to conditions: in vivo, time 2-4 hrs.
Data set [3] in a line: Acute toxicity in Albino mouse assessed as mortality at 300 mg/kg, po after 5 to 8 hrs. The format is organism-based. As to conditions: in vivo, time 5-8 hrs.
Data set [4] can be described thus: Acute toxicity in Albino mouse assessed as mortality at 50 mg/kg, po after 14 days. The format is organism-based. As to conditions: in vivo, 336 h, time 14 day.
A short description of data set [5]: Hepatotoxicity in Albino mouse assessed as change in hepatocytes at 50 to 2000 mg/kg, po measured after 14 days. As to conditions: in vivo, 336 h, dose 50-2000 mg/kg, time 14 day. The class given is toxicity, organism-based.
The subject of data set [6] is Mycobacterium tuberculosis. Kind of data set: Antitubercular activity against Mycobacterium tuberculosis H37Rv assessed as effect on nucleoid morphology at 6.25 ug/ml by fluorescence microscopy analysis. As to conditions: dose 6.25 µg/ml. The class given is functional.
A short description of data set [7]: Acute toxicity in Albino mouse assessed as mortality at 300 mg/kg, po after 14 days. The format is organism-based. As to conditions: in vivo, 336 h, time 14 day.

Regarding `COc1ccc(C2C(Cl)C(=O)N2C2=C(Cl)C(=O)c3ccccc3C2=O)cc1` (centres undefined), the Activity in data set [1] is 99%; in data set [2], “Toxic”; in data set [3], “Toxic”; in data set [4] it was “Non-Toxic”; in data set [5], “Non-Toxic”.

As to `CN(C)c1ccc(C2C(Cl)C(=O)N2C2=C(Cl)C(=O)c3ccccc3C2=O)cc1` (centres undefined), the Activity was 99% in data set [6], “Toxic” in data set [2] and “Non-Toxic” in data set [7].

As to `O=C1C(Cl)=C(Cl)C(=O)c2ccccc21` [Dichlon], the Activity entry in data set [5] was “Non-Toxic”.
